13 molecules from US12459951B2, “Compounds that interact with RAS superfamily proteins for treatment of cancers, inflammatory diseases, rasopathies, and fibrotic disease” (SHY Therapeutics, LLC, priority 2022, dated 2025) can be followed below.

Structures can show the parent of a compound that is named as a salt.

Assay [1] has as its system MiaPaca-2 (expressing KRAS G12C mutant). The experiment in a line: Proliferation Assay (Cell Viability Assay). It is filed as cell-based. The settings on record: Homo sapiens, MIA PaCa-2; read-out: Proliferation in MiaPaca-2: IC50. Put shortly: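 After 2–4 days' exposure at 37 °C, 5% CO2 to a single 10 μM final concentration or a dilution series (IC50), percent proliferation inhibition was derived from CellTiter 96 Aqueous One viability readings. The medium contained 0.3% DMSO and 10% FBS. KRAS G12C MiaPaca-2 cells were plated at 2000–5000/well the day before.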

In the next assay the test system is Erk1/2 phosphorylation. Briefly: Erk1/2 Phosphorylation Assay (western blot), Panc-1. The class given is cell-based, human. The settings on record: at 10 μM, * = activation. Summed up:
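Phospho-Erk1/2 (Thr202/Tyr204) was detected by western blot in lysates of Panc-1 cells (KRas G12D). These had 6 h, 37° C exposure to 10 μM compound or a dilution series for IC50, in 0.3% DMSO. Cells were either starved overnight in 0.5% FBS with a 15-min 1.5 ng/ml EGF pulse, or kept unstimulated in 10% FBS.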
Background: A western blot detects proteins with antibodies after separation by electrophoresis.

For the molecule `COCc1noc(Nc2nc(-c3nccn3C)nn3cc(-c4ccn(C(C)C)n4)c(C)c23)n1` [Compound 82, N-(6-(1-Isopropyl-1H-pyrazol-3-yl)-5-methyl-2-(1-methyl-1H-imidazol-2-yl)pyrrolo[2,1-f][1,2,4]triazin-4-yl)-3-(methoxymethyl)-1,2,4-oxadiazol-5-amine], in assay [1], the IC50 is less than 150 nM. The “% inh of Erk1/2 phosphorylation in Panc-1” value (“% inh” below) in the assay on Erk1/2 phosphorylation is on record as “A* (1-25% activation)”.
The like results for `COc1cccc(-c2cn3nc(-c4nccn4C)nc(N[C@@H]4CC[C@H](OC)C4)c3c2-c2ccccc2)c1C` (racemic) [Compound 271, rac 6-(3-Methoxy-2-methylphenyl)-N-((1R,3S)-3-methoxycyclopentyl)-2-(1-methyl-1H-imidazol-2-yl)-5-phenylpyrrolo[2,1-f][1,2,4]triazin-4-amine] were, in that order, 150 to 500 nM and “D (85-100% inhibition)”.
The matching figures for `COC[C@@H]1CC[C@@H]1CNc1nc(-c2nccn2C)nn2cc(-c3ccn(C(C)C)n3)c(-c3ccccc3)c12` (racemic) [Compound 20, rac 6-(1-Isopropyl-1H-pyrazol-3-yl)-N-(((1S,2R)-2-(methoxymethyl)cyclobutyl)methyl)-2-(1-methyl-1H-imidazol-2-yl)-5-phenylpyrrolo[2,1-f][1,2,4]triazin-4-amine]: more than 1000 nM and “D (85-100% inhibition)”.
The matching figures for `Cc1c(-c2ccn(C(C)C)n2)cn2nc(-c3nccn3C)nc(Nc3cnn(C(C)C)n3)c12` [Compound 77, 6-(1-Isopropyl-1H-pyrazol-3-yl)-N-(2-isopropyl-2H-1,2,3-triazol-4-yl)-5-methyl-2-(1-methyl-1H-imidazol-2-yl)pyrrolo[2,1-f][1,2,4]triazin-4-amine]: more than 1000 nM and “D* (85-100% activation)”.
On to `COc1cccc(-c2cn3nc(-c4nccn4C)nc(N[C@@H]4CC[C@@H](OC)C4)c3c2-c2ccccc2)c1C` (racemic) [Compound 270, rac 6-(3-Methoxy-2-methylphenyl)-N-((1R,3R)-3-methoxycyclopentyl)-2-(1-methyl-1H-imidazol-2-yl)-5-phenylpyrrolo[2,1-f][1,2,4]triazin-4-amine], for which the IC50 in assay [1] was in the range of 150 to 500 nM. Further, in the assay with Erk1/2 phosphorylation, the “% inh” value is reported as “D (85-100% inhibition)”.
The like results for `CC(C)n1ccc(-c2cn3nc(-c4nccn4C)nc(O)c3c2-c2ccccc2)n1` [Compound 17, 6-(1-Isopropyl-1H-pyrazol-3-yl)-2-(1-methyl-1H-imidazol-2-yl)-5-phenylpyrrolo[2,1-f][1,2,4]triazin-4-ol] were, in that order, more than 1000 nM and “A (1-25% inhibition)”.
On to `Cc1c(-c2ccn(C(C)C)n2)cn2nc(-c3nccn3C)nc(Nc3noc(C4CC4)n3)c12` [Compound 75, 5-Cyclopropyl-N-(6-(1-isopropyl-1H-pyrazol-3-yl)-5-methyl-2-(1-methyl-1H-imidazol-2-yl)pyrrolo[2,1-f][1,2,4]triazin-4-yl)-1,2,4-oxadiazol-3-amine], for which the IC50 in assay [1] was more than 1000 nM. Also, the “% inh” value in the assay with Erk1/2 phosphorylation is “B (26-49% inhibition)”.
The matching figures for `CO[C@H]1CC[C@@H](Nc2nc(-c3nccn3C)nn3cc(-c4ccn(C(C)C)n4)c(-c4ccccc4)c23)C1` (racemic) [Compound 18, rac 6-(1-Isopropyl-1H-pyrazol-3-yl)-N-((1R,3S)-3-methoxycyclopentyl)-2-(1-methyl-1H-imidazol-2-yl)-5-phenylpyrrolo[2,1-f][1,2,4]triazin-4-amine hydrochloride]: more than 1000 nM and “C (50-84% inhibition)”.
The matching figures for `Cc1ccn2nc(-c3nccn3C)nc(N)c12.O=C(O)C(F)(F)F` [Compound 37, 5-Methyl-2-(1-methyl-1H-imidazol-2-yl)pyrrolo[2,1-f][1,2,4]triazin-4-amine trifluoroacetic acid salt]: more than 1000 nM and 0 (0% inhibition).
The matching figures for `COCC1CCN(c2nc(-c3nccn3C)nn3cc(-c4ccn(C(C)C)n4)c(-c4ccccc4)c23)C1.Cl` (racemic) [Compound 19, rac 6-(1-Isopropyl-1H-pyrazol-3-yl)-4-(3-(methoxymethyl)pyrrolidin-1-yl)-2-(1-methyl-1H-imidazol-2-yl)-5-phenylpyrrolo[2,1-f][1,2,4]triazine hydrochloride salt]: more than 1000 nM and 0 (0% inhibition).
As for `Cc1c(-c2ccn(C(C)C)n2)cn2nc(-c3nccn3C)nc(Nc3nnc(C4CC4)[nH]3)c12` [Compound 81, N-(5-Cyclopropyl-4H-1,2,4-triazol-3-yl)-6-(1-isopropyl-1H-pyrazol-3-yl)-5-methyl-2-(1-methyl-1H-imidazol-2-yl)pyrrolo[2,1-f][1,2,4]triazin-4-amine], in assay [1], the IC50 was 150 to 500 nM. In addition, in the assay with Erk1/2 phosphorylation, the “% inh” value is 0 (0% inhibition).
On to `COc1cc(Nc2nc(-c3nccn3C)nn3cc(-c4ccn(C(C)C)n4)c(-c4ccccc4)c23)ncn1` [Compound 22, 6-(1-Isopropyl-1H-pyrazol-3-yl)-N-(6-methoxypyrimidin-4-yl)-2-(1-methyl-1H-imidazol-2-yl)-5-phenylpyrrolo[2,1-f][1,2,4]triazin-4-amine], for which the IC50 in assay [1] was 150 to 500 nM. Moreover, the “% inh” value with Erk1/2 phosphorylation is 0 (0% inhibition).
The like results for `COc1cc(Nc2nc(-c3nccn3C)nn3cc(-c4ccn(C(C)C)n4)c(C)c23)ccn1` [Compound 87, 6-(1-Isopropyl-1H-pyrazol-3-yl)-N-(2-methoxypyridin-4-yl)-5-methyl-2-(1-methyl-1H-imidazol-2-yl)pyrrolo[2,1-f][1,2,4]triazin-4-amine] were, in that order, more than 1000 nM and “C* (46-84% activation)”.
